Measured values reported in patent publication US6825181B1, “Aminoisoquinoline derivatives” (Ajinomoto Co., Inc., priority 1998, dated 2004).

Key:
Assay type in all cases: biochemical
[1] = biological target: T1, activated human blood coagulation factor X (Homo sapiens, UniProt P00742); assay: Determination of activity of inhibiting the activated blood-coagulation factor X; conditions: negative logarithm of concentration inhibiting 50% of initial rate; pH 8.4, room temperature; read-out: Activity of inhibiting activated blood coagulation factor X (pIC50) (converted)
T1 construct: purchased Enzyme Research Co
Description: Determination of Activity of Inhibiting the Activated Blood-Coagulation Factor X
130 μl of 100 mM tris hydrochloride buffer adjusted to pH 8.4 was added to 10 μl of an aqueous solution of a compound to be tested. Then 10 μl of a 0.5 unit/ml solution of activated human blood coagulation factor X (a product of Enzyme Research Co.) in tris hydrochloride of pH 8.4 was added to the resultant mixture. After the incubation at room temperature for 10 minutes, 50 μl of a solution of N-benzoyl-L-isoleucyl-L-glutamyl-glycyl-L-arginyl-P-nitroanilide hydrochloride (a product of Peptide Institute, Inc.) adjusted to 0.8 mM with tris hydrochloride (pH 8.4) was added thereto. The absorbance was determined and then the initial reaction rate was determined. A control was prepared in the same manner as that described above except that the solution of the compound to be tested was replaced with 10 μl of tris hydrochloride buffer adjusted to pH 8.4. The absorbance was determined with MICROPLATE READER Model 3550-UV (a product of BIO RAD) at a wave length of 405 nm at intervals of 15 seconds for 16 minutes.

[2] = biological target: T2, human thrombin (Homo sapiens, UniProt P00734); assay: Determination of thrombin-inhibiting activity; conditions: negative logarithm of concentration inhibiting 50% of initial rate; substrate S-2238, pH 8.4; read-out: Thrombin-inhibiting activity (pIC50) (converted)
T2 construct: solution of human thrombin (a product of SIGMA Co.); purchased SIGMA Co
Description: Determination of Thrombin-Inhibiting Activity:
130 μl of 100 mM tris hydrochloride buffer adjusted to pH 8.4 was added to 10 μl of an aqueous solution of a test compound. Then 10 μl of a solution of human thrombin (a product of SIGMA Co.) adjusted to 2 units/ml with tris hydrochloride buffer of pH 8.4 was added to the resultant mixture. After the incubation at room temperature for 10 minutes, 50 μl of a solution of D-phenylalanyl-L-pipecolyl-L-arginyl-P-nitroanilide dihydrochloride (S-2238; a product of Daiichi Kagaku Yakuhin Co.) adjusted to 0.4 mM with tris hydrochloride buffer of pH 8.4 was added thereto. The absorbance was determined and then the initial reaction rate was determined. A control was prepared in the same manner as that described above except that the solution of the compound to be tested was replaced with 10 μl of tris hydrochloride buffer adjusted to pH 8.4. The absorbance was determined with MICROPLATE READER Model 3550-UV (a product of […]) at a wave length of 405 nm at intervals of 15 seconds for 16 minutes. The negative logarithm (pIC50) of a concentration of the test compound which inhibits 50% of the activity (initial rate) of the thrombin in the absence of the test compound was determined, and employed as the index of the activity of inhibiting thrombin.

[3] = tested on: blood plasma from healthy people (prothrombin time); assay: Determination of blood anticoagulating activity by prothrombin time (PT) determination method; conditions: negative logarithm of concentration which elongated PT of the control to twice as long; human blood plasma
Description: Determination of Blood Anticoagulating Activity:
The blood anticoagulating activity was determined by a prothrombin time (PT) determination method. The PT was determined as follows: The blood was taken from healthy people. 3.8% aqueous trisodium citrate solution was added to the blood in a volume ratio of 1:10. The blood plasma was separated by the centrifugation. 5 μl of DMSO solution containing a test compound was added to 45 μl of the blood plasma. After the incubation at room temperature for 2 minutes, a test tube containing the blood plasma solution was placed in Sysmex CA-3000 fully automatic blood coagulation determination device (a product of To a Medical Electronics Co., Ltd.), and incubated at 37° C. for 3 minutes. 100 μl of Sysmex PT II (rabbit brain tissue thromboplastin, 13.2 mM calcium chloride; a product of To a Medical Electronics Co., Ltd.) was fed into the test tube. PT was automatically determined with the device. A sample containing […] of DMSO in place of the solution of the test compound was used as the control. The negative logarithm (PT2) of the concentration of the test compound which elongated PT of the control to the twice as long was determined, and employed as the index of the blood anticoagulating activity.

T1 sequence (P00742 235-488 limits assumed): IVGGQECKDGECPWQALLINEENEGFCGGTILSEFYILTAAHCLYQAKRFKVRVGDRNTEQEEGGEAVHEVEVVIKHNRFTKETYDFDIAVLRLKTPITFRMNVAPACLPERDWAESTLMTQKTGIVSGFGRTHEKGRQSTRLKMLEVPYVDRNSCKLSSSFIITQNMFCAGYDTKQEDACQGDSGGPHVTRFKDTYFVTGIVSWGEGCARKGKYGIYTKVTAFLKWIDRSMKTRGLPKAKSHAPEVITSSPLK
T1 sequence (P00742 41-179 partner limits assumed): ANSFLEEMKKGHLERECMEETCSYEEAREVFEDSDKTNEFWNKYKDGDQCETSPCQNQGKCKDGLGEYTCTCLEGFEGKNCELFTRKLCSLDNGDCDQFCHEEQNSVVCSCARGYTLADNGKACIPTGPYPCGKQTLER

| Structure (SMILES) | IC50 [1] [µM] | IC50 [2] [µM] | Blood anticoagulating activity (PT2) [3] |
| --- | --- | --- | --- |
| Nc1nccc2ccc(OC[C@@H](CCC(=O)O)NC(=O)C3CCN(c4ccncc4)CC3)cc12 [Compound of Ex. 21, (4R)-5-(1-aminoisoquinoline-7-yloxy)-4-[(1-(4-pyridyl)-4-piperidine)carbamido]pentanoic acid bistrifluoroacetate] | 0.158 | 316 | – |
| Nc1nccc2cc(CC(=O)C(=O)O)c(OCCNC(=O)c3ccc(C(=O)N4CCCC4)cc3)cc12 [Compound of Ex. 23, 3-[1-amino-(2-(4-(1-pyrrolidinecarbonyl)benzoylamino)ethoxy)isoquinoline-6-yl]-2-oxopropionic acid mono-trifluoroacetate] | 0.0251 | 15.8 | – |
| CCOC(=O)CC[C@H](COc1ccc2ccnc(N)c2c1)NC(=O)c1ccc(C(=O)N2CCCC2)cc1 [Compound of Ex. 17, ethyl (4R)-5-(1-aminoisoquinoline-7-yloxy)-4-[4-(1-pyrrolidinecarbonyl)benzoylamino]pentanoate mono-trifluoroacetate] | 0.251 | 316 | – |
| Nc1nccc2cc(CC(=O)C(=O)O)c(OCCNC(=O)C3CCN(c4ccncc4)CC3)cc12 [Compound of Ex. 27, 3-[1-amino-7-(2-(4-(1-(4-pyridyl)-4-piperidine)carbonylamino)ethoxy)isoquinoline-6-yl]-2-oxopropionic acid bistrifluoroacetate] | 0.251 | > 501 | 6.2 |
| CC(=N)N1CCC(Oc2ccc(C(=O)NCCOc3cc4c(N)nccc4cc3CC(=O)C(=O)O)cc2)CC1 [Compound of Ex. 26, 3-[1-amino-7-(2-(4-(1-acetimidoyl-4-piperidyloxy)benzoylamino)ethoxy)isoquinoline-6-yl]-2-oxopropionic acid bistrifluoroacetate] | 0.2 | > 501 | 6.2 |
| Nc1nccc2ccc(OCCNC(=O)c3ccc(C(=O)N4CCCC4)cc3)cc12 [Compound of Ex. 2, N-[2-(1-aminoisoquinoline-7-yloxy)ethyl]-4-(1-pyrrolidinecarbonyl)benzamide mono-trifluoroacetate] | 0.251 | 251 | 5.5 |
| N=C(N)Nc1ccc(C(=O)N[C@H](CCC(=O)O)COc2ccc3ccnc(N)c3c2)cc1 [Compound of Ex. 25, (4R)-5-(1-aminoisoquinoline-7-yloxy)-4-[4-(guanidino)benzoylamino]pentanoic acid mono-trifluoroacetate] | 0.398 | 794 | – |
| Nc1nccc2ccc(OC[C@@H](CCC(=O)O)NC(=O)c3ccc(C(=O)N4CCCC4)cc3)cc12 [Compound of Ex. 16, (4R)-5-(1-aminoisoquinoline-7-yloxy)-4-[4-(1-pyrrolidinecarbonyl)benzoylamino]pentanoic acid mono-trifluoroacetate] | 0.0794 | > 1000 | 5.6 |
